The values below come from DBAASP.

The MIC is the lowest concentration found to suppress growth. A low value points to a more susceptible organism.

The structures appear in SMILES notation. Converted amounts (≈) assume the structure as drawn. “And” between values parts separate entries of the source, which are not always exact repeats. Identical values can stand only once.

Test systems include Escherichia coli W160-37; Staphylococcus aureus; Pseudomonas aeruginosa; Vibrio cholerae; Escherichia coli MG1655; Botrytis cinerea.
What all share (test): ≥ marks a high value that may be exact or a test limit, other limits are often not marked, values filed in µg/mL are converted to µM
The subject of test [1] is Staphylococcus aureus NCTC 10788.
Test [2] deals with Candida albicans ATCC 90028.
Test [3] deals with Candida albicans NCPF 1467.
For test [4], the system named is Escherichia coli NCTC 10418.
The test system of test [5] is Staphylococcus aureus ATCC 12493.
Test [6] relates to Escherichia coli ATCC 25922.
The subject of test [7] is Escherichia coli ATCC 11775.
In test [8] the test system is Staphylococcus aureus NCTC 8325.
In test [9] the test system is Staphylococcus aureus ATCC 25923.
Test [10] relates to Staphylococcus aureus ATCC 12600.
In test [11] the test system is Pseudomonas aeruginosa ATCC 27853.
Test [12] deals with Staphylococcus aureus MTCC 9542.
Test [13] deals with Bacillus subtilis MTCC 14416.
In test [14] the test system is Staphylococcus aureus NBRC 12732.
Test [15] concerns Bacillus subtilis NBRC 3513.
Test [16] has as its system Staphylococcus epidermidis NBRC 12933.
Test [17] has as its system Bacillus megaterium ATCC 19213.
The subject of test [18] is Candida albicans ATCC 10231.
Test [19] deals with Staphylococcus aureus IFO 12732.
Test [20] deals with Bacillus subtilis IFO 3513.
In test [21] the test system is Escherichia coli IFO 12734.
The test system of test [22] is Saccharomyces cerevisiae ATCC 44774.
The subject of test [23] is Pseudomonas putida ATCC 17426.
Test [24] has as its system Escherichia coli ATCC 27325.
Test [25] relates to Salmonella enterica subsp. enterica serovar Enteritidis ATCC 13076.
Test [26] relates to Cryptococcus neoformans ATCC 34881.
Test [27] deals with Streptococcus mutans ATCC 25175.
For test [28], the system named is Staphylococcus aureus ATCC 15752.
In test [29] the test system is Bacillus subtilis ATCC 62037.

In the case of `CC[C@H](C)[C@@H]1NC(=O)[C@H](CC(C)C)NC(=O)[C@@H](NC(=O)[C@H](Cc2ccccc2)NC(=O)[C@H](CC(C)C)NC(=O)[C@H](CCCCN)NC(=O)[C@@H]2CCCN2C(=O)[C@H](CC(C)C)NC(=O)[C@H](C)NC(=O)[C@H](C)NC(=O)[C@H](CC(C)C)NC(=O)[C@H](C)NC(=O)[C@H](CC(C)C)NC(=O)[C@H](CO)NC(=O)[C@H](CC(C)C)NC(=O)[C@@H](N)Cc2ccccc2)CSSC[C@@H](C(=O)O)NC(=O)[C@H](CCCCN)NC(=O)[C@H](CCCCN)NC(=O)[C@H](Cc2ccccc2)NC1=O` [FLSLALAALPKLFCLIFKKC], the MIC was at least 32 µM in test [1]; at least 100 µM in test [2]; at least 32 µM in test [3]; at least 512 µM in [4]; at least 32 µM in test [5]; > 60 µM and 100 µM in [6]. The minimal inhibitory concentration (MIC) in test [7] is 25 µM (≈ 55.9 µg/mL); in [8], 13 µM (≈ 29.1 µg/mL); in test [9], over 60 µM; in test [10], 12.5 µM (≈ 28 µg/mL).
`CC[C@H](C)[C@H](NC(=O)CN)C(=O)N[C@@H](Cc1c[nH]c2ccccc12)C(=O)N[C@@H](CCCCN)C(=O)N[C@@H](CO)C(=O)N[C@@H](CC(C)C)C(=O)N[C@@H](Cc1ccccc1)C(=O)N[C@H](C(=O)N[C@@H](CCCCN)C(=O)N[C@@H](CC(C)C)C(=O)N[C@@H](CC(C)C)C(=O)N[C@@H](CCCCN)C(=O)NCC(N)=O)[C@@H](C)O` [GIWKSLFTKLLKG]: the MIC against Escherichia coli W160-37 came to 3.35 µM (≈ 5 µg/mL); in the test with Staphylococcus aureus, 6.71 µM (≈ 9.99 µg/mL); against Pseudomonas aeruginosa, 10.1 µM (≈ 15 µg/mL).
Consider `CC[C@H](C)[C@@H]1NC(=O)[C@H](CCCCN)NC(=O)[C@@H](NC(=O)[C@H](CC(C)C)NC(=O)[C@@H](NC(=O)[C@H](CCC(N)=O)NC(=O)[C@@H]2CCCN2C(=O)[C@H](CC(C)C)NC(=O)[C@H](Cc2ccccc2)NC(=O)[C@H](CC(N)=O)NC(=O)[C@H](C)NC(=O)[C@H](C)NC(=O)[C@H](CC(C)C)NC(=O)CN)[C@@H](C)CC)CSSC[C@@H](C(N)=O)NC(=O)[C@H](CCCCN)NC(=O)[C@H](CCCN=C(N)N)NC(=O)[C@H](C)NC1=O` [GLAANFLPQILCKIARKC], for which the minimum inhibitory concentration (MIC) is over 51 µM in test [11]; 25.5 µM (≈ 49.9 µg/mL) in [12]; at least 51 µM in [13]; 25.5 µM (≈ 49.9 µg/mL) against Vibrio cholerae; at least 51 µM against Escherichia coli MG1655.
As for `CC(C)C[C@H](NC(=O)[C@H](CCCCN)NC(=O)[C@H](CC(C)C)NC(=O)[C@H](CC(C)C)NC(=O)[C@H](Cc1c[nH]c2ccccc12)NC(=O)[C@@H](N)CCCN=C(N)N)C(=O)NCC(=O)N[C@@H](Cc1cnc[nH]1)C(=O)N[C@@H](Cc1cnc[nH]1)C(=O)NCC(=O)N[C@@H](CCCN=C(N)N)C(=O)O` [RWLLKLGHHGR], the minimum inhibitory concentration (MIC) in test [14] is at least 64 µM; in test [15] it was at least 64 µM; in test [16] it was at least 128 µM; in [17] it was at least 32 µM.
`CC[C@H](C)[C@H](N)C(=O)N[C@@H](CC(N)=O)C(=O)N[C@@H](CC(C)C)C(=O)N[C@@H](CCCCN)C(=O)NCC(=O)N[C@@H](CC(C)C)C(=O)N[C@H](C(=O)N[C@@H](CCCCN)C(=O)N[C@@H](CCCCN)C(=O)N[C@H](C(=O)N[C@@H](C)C(=O)N[C@@H](CO)C(=O)N[C@@H](CC(C)C)C(=O)N[C@@H](CC(C)C)C(=O)N[C@H](C(=O)O)[C@@H](C)O)C(C)C)[C@@H](C)CC` [INLKGLIKKVASLLT]: the minimum inhibitory concentration (MIC) in the test with Botrytis cinerea is 5 µM (≈ 8.06 µg/mL); in test [18], 100 µM (≈ 161 µg/mL); in [7], 25 µM (≈ 40.3 µg/mL); in test [10], at least 100 µM.
As to `CC[C@H](C)[C@H](NC(=O)[C@H](CC(C)C)NC(=O)[C@@H]1CCCN1C(=O)[C@H](Cc1c[nH]c2ccccc12)NC(=O)[C@H](CCCCN)NC(=O)[C@H](Cc1c[nH]c2ccccc12)NC(=O)[C@@H]1CCCN1C(=O)[C@H](CC(C)C)NC(=O)[C@H](CC(C)C)NC(=O)[C@@H]1CCCN1C(=O)[C@H](Cc1c[nH]c2ccccc12)NC(=O)[C@H](CCCN=C(N)N)NC(=O)[C@@H](N)CCCN=C(N)N)C(N)=O` [RRWPLLPWKWPLI], the MIC in test [19] came to 3.55 µM (≈ 6.25 µg/mL); in test [20], 3.55 µM (≈ 6.25 µg/mL); in [21], 14.2 µM (≈ 25 µg/mL).
Turning to `CC[C@H](C)[C@H](NC(=O)[C@@H]1CCCN1C(=O)[C@H](Cc1c[nH]c2ccccc12)NC(=O)[C@H](CCC(N)=O)NC(=O)[C@H](CCCCN)NC(=O)[C@H](CC(C)C)NC(=O)[C@H](CC(C)C)NC(=O)[C@@H](N)CCCCN)C(=O)NCC(=O)N[C@@H](CCCCN)C(=O)N[C@@H](CC(C)C)C(=O)N[C@@H](CC(C)C)C(=O)N[C@@H](CCCCN)C(=O)N[C@@H](CCCCN)C(=O)N[C@@H](CC(C)C)C(=O)N[C@@H](CC(C)C)C(=O)N[C@@H](CCCCN)C(=O)N[C@@H](CCCCN)C(=O)N[C@@H](CC(C)C)C(=O)N[C@@H](CC(C)C)C(=O)N[C@@H](CCCCN)C(=O)O` [KLLKQWPIGKLLKKLLKKLLK], the MIC in test [22] came to 0.395 µM (≈ 1 µg/mL); in test [23], 0.395 µM (≈ 1 µg/mL); in test [18], 0.395 µM (≈ 1 µg/mL); in test [24], 0.198 µM (≈ 0.5 µg/mL); in test [25] it was 0.395 µM (≈ 1 µg/mL); in test [26], 0.395 µM (≈ 1 µg/mL). The MIC in [27] turned out to be 0.395 µM (≈ 1 µg/mL); in test [28], 0.198 µM (≈ 0.5 µg/mL); in [29], 0.395 µM (≈ 1 µg/mL).
For `CC(C)[C@H](NC(=O)[C@H](CCCCN)NC(=O)CNC(=O)CNC(=O)[C@H](CCC(N)=O)NC(=O)[C@H](CCCCN)NC(=O)CNC(=O)[C@H](CCCN=C(N)N)NC(=O)CNC(=O)[C@@H](N)CCCCN)C(=O)N[C@@H](CCCN=C(N)N)C(=O)N[C@@H](C)C(=O)N[C@@H](CCCCN)C(=O)N[C@@H](C)C(=O)N[C@@H](CCCCN)C(=O)N[C@H](C(=O)N[C@@H](CCCN=C(N)N)C(=O)O)[C@@H](C)O` [KGRGKQGGKVRAKAKTR], the MIC in test [22] worked out at 0.548 µM (≈ 1 µg/mL); in [23] it was 0.548 µM (≈ 1 µg/mL); in test [18], 0.548 µM (≈ 1 µg/mL); in [24] it was 0.548 µM (≈ 1 µg/mL); in test [25], 2.19 µM (≈ 4 µg/mL); in [26] it was 0.548 µM (≈ 1 µg/mL). Besides, the minimal inhibitory concentration (MIC) in test [27] was 1.1 µM (≈ 2 µg/mL); in test [28] it was 2.19 µM (≈ 4 µg/mL); in test [29], 0.548 µM (≈ 1 µg/mL).
